Results on 18 molecules are retold here after patent US6586413B2, “Methods and compositions for reducing ischemic injury of the heart by administering adenosine receptor agonists and antagonists” (The United States of America as represented by the …, priority 1999, dated 2003).

Each structure is given as a SMILES string.

Common to all, as to type: cell-based
Data set [1] concerns isolated cardiac myocytes. The data set can be described thus: Apoptotic cell death by DNA laddering on 1.5% agarose gel. As to conditions: for apoptotic cell death caused by prolonged exposure to the agent: no ischemia, agents that increase intracellular calcium. The method, then:
Such smearing is indicative of a culmination of the apoptotic cell death pathway. Isolated cardiac myocytes were exposed to 90-min ischemia and 30-min reoxygenation (lanes 4 and 5). […] Lanes 1 and 2 represent myocytes not exposed to ischemia or any agent. Data were representative of three experiments.
Isolated cardiac myocytes were exposed to prolonged moderate simulated ischemia (17 hours with 2-3% O2). Lane 3 represents myocytes not exposed to ischemia or any agent. Lane 5 represents myocytes exposed to 17 hours of ischemia. […] Data were representative of three experiments.
Lane 3 represents myocytes not exposed to any agent. Lane 5 represents cardiac myocytes exposed (for three hours) to an agent (a P2X receptor agonist, 2-methylthioATP) known to increase intracellular calcium concentration. Prolonged exposure to 2-methylthioATP or UTP caused increased apoptosis (Lane 7). […] Data were representative of two experiments.
The effects of agents which target the adenosine receptor on apoptosis were initially examined in isolated cardiac myocytes exposed to ischemia (for 90 minutes and 30 minutes of reoxygenation) or agents which increase intracellular calcium levels. Increasing the level of intracellular calcium concentration induces non-ischemia-related apoptosis in vitro. Apoptotic cell death of cardiac myocytes was assessed by determining the extent of smearing or “DNA laddering” on 1.5% agarose gels.

Data set [2] has as its system cardiac ventricular myocytes cultured from chick embryos. Briefly: Hypoxia-induced myocyte injury, agent present during prolonged (90 min) hypoxia with glucose deprivation. The conditions noted are these: for cardioprotective effect when present during prolonged hypoxia (CK released, % myocytes killed): agonist present during prolonged hypoxia/simulated ischemia; for effect of antagonist on A1 agonist (CCPA, CHA, ADAC)-induced cardioprotection: antagonist with A1 agonist during prolonged hypoxia; for effect of antagonist on A3 agonist (IB-MECA, Cl-IB-MECA)-induced cardioprotection: antagonist with A3 agonist during prolonged hypoxia; for creatine kinase released during prolonged simulated ischemia: increasing concentrations, presence and absence of DPCPX (FIGS. 3A-3D). The procedure:
Ventricular cells were cultured from chick embryos 14 days in ovo as previously described (16, 23). Cells were cultivated in a humidified 5% CO2-95% air mixture at 37° C. […] The medium was changed to a HEPES-buffered medium containing (mM) 139 NaCl, 4.7 KCl, 0.5 MgCl2, 0.9 CaCl2, 5 HEPES (N-2-hydroxyethylpiperazine-N′-2-ethanesulfonic acid) and 2% fetal bovine serum, pH 7.4, 37° C. before exposing the myocytes to the various conditions at 37° C. Control myocytes were maintained in the HEPES-buffered media under room air. Ninety-minute exposure of the myocytes to hypoxia with glucose deprivation was used to induce cell injury. Hypoxia was produced by placing the cells in a hypoxic incubator (NuAire) where O2 was replaced by N2 as previously described (16,23). Effects of adenosine receptor agonists and antagonists on the extent of myocyte injury were determined by exposure of the prepared cells to these agents during the prolonged hypoxia.
(§1) Determination of myocyte injury was made at the end of the ninety-minute hypoxia, at which time myocytes were taken out of the hypoxic incubator and re-exposed to room air (normal % O2). Aliquots of the media were then obtained for creatine kinase (CK) activity measurement, which is followed by quantitation of the number of viable cells. Measurement of basal level of cell injury was made after parallel incubation of control cells under normal % O2. The extent of hypoxia-induced injury to the ventricular cell was quantitatively determined by the percentages of cells killed and by the amount of CK released into the media according to a previously described method (16, 23). […] In brief, the media were replaced with a trypsin-EDTA buffer to detach the cells, which was then followed by sedimentation of the viable myocytes. Parallel changes in % cells killed and CK released (16, 23) further validated this assay for % cells killed. The amount of CK was measured as enzyme activity (unit/mg), and increases in CK activity above the control level were determined. The percentage of cells killed was calculated as the number of cells obtained from the control group (representing cells not subjected to any hypoxia or drug treatment) minus the number of cells from the treatment group divided by number of cells in control group multiplied by 100%.

For data set [3], the system named is ventricular myocytes cultured from chick embryos. Briefly: Pharmacological preconditioning: 5 min exposure to agent, then 90 min simulated ischemia. The conditions noted are these: for preconditioning / cardioprotective effect: agent alone, 5 min exposure before 90 min ischemia; for effect of PLD inhibition on protective effect of MRS1760: ethanol (0.5%) or propranolol (100 μM) with 10 nM MRS1760. The procedure: FIG. 14 is a graph showing that the partial A1 receptor agonist, 8-butylaminoCPA, mimics the cardioprotective effect of ischemic preconditioning. Ventricular myocytes were cultured from chick embryos 14 days in ovo. The ability of the partial A1 agonist, 8-butylaminoCPA (8-butylamino-N^6-cyclopentyladenosine), to induce preconditioning was determined. In brief, myocytes were exposed to 8-butylaminoCPA at the indicated concentrations for 5 min, incubated for 10 min with agonist-free medium, and then exposed to simulated ischemia for 90 min. The extent of myocyte injury was quantitated at the end of the 90 min period by determinating the percentage of cells killed and the amount of creatine kinase (CK) released (units per milligram of cell protein). Data are means±SE of values from five independent experiments.
as §1
Media were then replaced with fresh media, which was then followed by exposure to 90-minute simulated ischemia and the data graphed.

For data set [4], the target named is T1, human adenosine A3 receptor (Homo sapiens, UniProt P0DMS8).
T1 construct: full length cDNA encoding human adenosine A3 receptor subcloned in pcDNA3; expressed in transfected cells; host or cells: chick embryo atrial myocytes, transient calcium phosphate transfection with pcDNA3/hA3R
T1 sequence (P0DMS8 1-318): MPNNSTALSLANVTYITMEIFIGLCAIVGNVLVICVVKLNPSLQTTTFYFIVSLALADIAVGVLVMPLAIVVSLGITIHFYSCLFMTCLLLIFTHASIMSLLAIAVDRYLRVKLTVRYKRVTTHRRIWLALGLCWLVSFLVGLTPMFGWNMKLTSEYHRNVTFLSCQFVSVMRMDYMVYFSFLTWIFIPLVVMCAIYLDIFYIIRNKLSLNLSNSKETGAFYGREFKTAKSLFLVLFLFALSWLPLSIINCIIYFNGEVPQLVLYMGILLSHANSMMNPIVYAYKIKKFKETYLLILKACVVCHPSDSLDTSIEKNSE
The data set can be described thus: Preconditioning in chick atrial myocytes transfected with the human A3 receptor. As to conditions: hA3R-transfected vs vector-transfected atrial myocytes. The procedure: Transfection of chick atrial myocytes with the human A3 receptor—Atrial cells were cultured from chick embryos 14 days in ovo and transiently transfected with pcDNA3 (empty vector) or with pcDNA3/hA3R (full length cDNA encoding human adenosine A3 receptor subcloned in pcDNA3) using the calcium phosphate precipitation method. Forty-eight hours after transfection, the cells were exposed to the compounds of the invention and the percentage of myocytes killed during simulated ischemia was determined.
The transfected myocytes were then exposed to the compound for 5 minutes, which was followed by replacement with fresh media and myocytes exposed to normal conditions (non-ischemic) for 10 minutes prior to being exposed to ninety minutes of ischemia. The decrease in the number of myocytes killed in A3 receptor cDNA-transfected myocytes as compared to vector-transfected myocytes was plotted as a function of the concentration of the compound. This decrease in myocytes killed represented an index of the protection mediated via the human adenosine A3 receptor.

Where [5] appears, read: 8-SPT alone present during the hypoxia.
The mark [6] stands for this setting: in the presence of adenosine and 8-SPT (100 μM) during hypoxia.

As to `CSc1nc(N)c2ncn([C@@H]3O[C@H](COP(=O)(O)OP(=O)(O)OP(=O)(O)O)[C@@H](O)[C@H]3O)c2n1` [2-methylthioATP], the “apoptotic cell death caused by prolonged exposure to the agent” value in data set [1] is reported as “caused an increase in apoptotic cell death”. Consider `Cn1c(=O)c2[nH]c(-c3ccc(S(=O)(=O)O)cc3)nc2n(C)c1=O` [8-SPT, 8-sulfophenyl-theophylline], for which, in data set [2] (setting [5]), the “% cells killed” value worked out at 31.6±1.5% and the CK released is 29.6±1.2 unit/mg. Take `Nc1ncnc2c1ncn2[C@@H]1O[C@H](CO)[C@@H](O)[C@H]1O` [Adenosine]: the CK released is recorded as 14.9±3 unit/mg in data set [2] (adenosine 10 μM added during ninety-minute hypoxia, hypoxia alone 28.5±1.5) and 31±5 unit/mg in data set [2] (setting [6]). For the same molecule, the “% cells killed” value in data set [2] (adenosine 10 μM added during ninety-minute hypoxia, hypoxia alone 30±2) turned out to be 12±2%; in data set [2] (setting [6]), 28±3%.

In the case of `OC[C@H]1O[C@@H](n2cnc3c(NC4CCCCC4)ncnc32)[C@H](O)[C@@H]1O` [CHA, N^6-cyclohexyladenosine], the “cardioprotective effect when present during prolonged hypoxia (CK released, % myocytes killed)” value in data set [2] is given as “able to protect the myocytes when present during the prolonged hypoxia”. On to `Cn1c(=O)c2c(nc(C=Cc3cccc(Cl)c3)n2C)n(C)c1=O` [CSC, 8-(3-chlorostyryl)caffeine], for which the “apoptosis (DNA laddering)” value in data set [1] (prolonged moderate ischemia, 17 hours with 2-3% O2) is recorded as “reduced apoptosis induced by the prolonged moderate ischemia”. On to `CCCn1c(=O)c2[nH]c(C3CCCC3)nc2n(CCC)c1=O` [DPCPX, 8-cyclopentyl-1,3-dipropylxanthine], for which, in data set [2], the “effect of antagonist on A1 agonist (CCPA, CHA, ADAC)-induced cardioprotection” value (“effect of antagonist on A1 agonist” for short) was “blocked by the A1 antagonist DPCPX” and the “effect of antagonist on A3 agonist (IB-MECA, Cl-IB-MECA)-induced cardioprotection” value (“effect of antagonist on A3 agonist” for short) is given as “had no effect on the ability of IB-MECA or Cl-IB-MECA to mediate their cardioprotective effects”.

As for `CNC(=O)[C@H]1O[C@@H](n2cnc3c(NCc4cccc(I)c4)ncnc32)[C@H](O)[C@@H]1O` [IB-MECA, N6-(3-iodobenzyl)adenosine-5′-N-methyluronamide], the “cardioprotective effect when present during prolonged hypoxia (CK released, % myocytes killed)” value in data set [2] is given as “capable of protecting the cardiac myocytes against hypoxia-induced injury”. As to `OC[C@@]12C[C@@H]1[C@@H](n1cnc3c(NCc4cccc(I)c4)ncnc31)[C@H](O)[C@@H]2O` [MRS1743], the “preconditioning / cardioprotective effect” value in data set [3] was “exerting a potent preconditioning-like effect”. Turning to `CNC(=O)C1OC(n2cnc3c(NCc4cccc(I)c4)nc(NC)nc32)C(O)C1O` (stereo not shown) [MRS 537], the “preconditioning / protection mediated via human adenosine A3 receptor” value in data set [4] was “can exert the cardioprotective effect of preconditioning via the human adenosine A3 receptor”. The “creatine kinase released during prolonged simulated ischemia” value in data set [2] was “cardioprotective effects”.

Consider `CNC(=O)C1CC(O)C(n2cnc3c(NCc4cccc(I)c4)nc(Cl)nc32)O1` (stereo not shown) [MRS 584], for which, in data set [4], the “preconditioning / protection mediated via human adenosine A3 receptor” value is “can exert the cardioprotective effect of preconditioning via the human adenosine A3 receptor”. Also, the “creatine kinase released during prolonged simulated ischemia” value in data set [2] was “cardioprotective effects”.

As to `CCOC(=O)C1=C(C)NC(c2ccccc2)=C(C(=O)OCC)C1/C=C/c1ccccc1` (stereo not shown) [MRS 1097, 3,5-Diethyl 2-methyl-6-phenyl-4-[2-phenyl-(E)-vinyl]-1,4-(1)-dihydropyridine-3,5-dicarboxylate], in data set [2], the “effect of antagonist on A1 agonist” value is on record as “neither MRS 1191 nor MRS 1097 was able to block the CCPA-induced cardioprotection” and the “effect of antagonist on A3 agonist” value is reported as “able to block the cardioprotective effect of Cl-IB-MECA”. As to `CCOC(=O)C1=C(C)NC(c2ccccc2)=C(C(=O)OCc2ccccc2)C1C#Cc1ccccc1` (stereo not shown) [MRS 1191, 3-ethyl-5-benzyl-2-methyl-6-phenyl-4-phenylethynyl-1,4-(1)-dihydropyridine-3,5-dicarboxylate], in data set [2], the “effect of antagonist on A1 agonist” value was “neither MRS 1191 nor MRS 1097 was able to block the CCPA-induced cardioprotection” and the “effect of antagonist on A3 agonist” value is listed as “blocked the Cl-IB-MECA-induced cardioprotection”. Moreover, the “apoptotic cell death (DNA laddering)” value in data set [1] (90 min ischemia and 30 min reoxygenation, 10 nM Cl-IB-MECA, 1 μM MRS1191) is “but not the A3 antagonist (MRS1191) reduced apoptotic cell death”.

As for `CNC(=O)C1OC(n2cnc3c(NCc4cccc(S(=O)(=O)O)c4)ncnc32)C(O)C1O` (stereo not shown) [MRS 1340], the “creatine kinase released during prolonged simulated ischemia” value in data set [2] is recorded as “cardioprotective effects”. Turning to `CNC(=O)C1OC(n2cnc3c(NCc4cccc(C#CCNC(=O)CCC(=O)Nc5cccc(/C=C/c6nc7c(c(=O)n(C)c(=O)n7C)n6C)c5)c4)ncnc32)C(O)C1O` (stereo not shown) [MRS 1528], the “preconditioning / protection mediated via human adenosine A3 receptor” value in data set [4] was “can cause preconditioning of the cardiac myocytes via human adenosine A3 receptor”. The “preconditioning effect in presence of A2a agonist CGS21680” value in data set [3] (CGS21680 (0.3 μM)) is listed as “protective effect of low concentrations of MRS1528 is attenuated by the A2a agonist CGS21680 whereas the protective effect of high concentrations of MRS1528 is not affected”. In addition, the “preconditioning effect in presence of A2a antagonist CSC” value in data set [3] (CSC (1 μM)) is reported as “unaffected by the A2a receptor antagonist CSC”. The “preconditioning / cardioprotective effect” value in data set [3] was “can activate A3 receptor to induce preconditioning and can simultaneously block the A2a receptor to enhance its preconditioning effect”. Take `CC(C)NCC(O)COc1cccc2ccccc12` (stereo not shown) [Propranolol]: the “effect of PLD inhibition on protective effect of MRS1760” value in data set [3] is “also abolished the protective effect of MRS1760”.

As to `COc1ccc2c(c1)CC[C@@H]1[C@@H]2CC[C@]2(C)[C@@H](NCCCCCCN3C(=O)C=CC3=O)CC[C@@H]12` [U-73122], in data set [3] (U-73122 (10 μM) with 1 μM 8-butylaminoCPA), the “effect of PLC inhibitor on protective response to 8-butylaminoCPA” value is “able to block the protective response to 8-butylaminoCPA”. Take `O=c1ccn([C@@H]2O[C@H](COP(=O)(O)OP(=O)(O)OP(=O)(O)O)[C@@H](O)[C@H]2O)c(=O)[nH]1` [UTP]: in data set [1], the “apoptotic cell death caused by prolonged exposure to the agent” value is “caused an increase in apoptotic cell death”. For the molecule `CCO` [ethanol], the “effect of PLD inhibition on protective effect of MRS1760” value in data set [3] is on record as “abolished the protective effect of MRS1760”.
